The source of these data is patent US20240239811A1, “5-(5-(PIPERIDIN-4-YL)THIENO[3,2-C]PYRAZOL-2-YL]INDAZOLE DERIVATIVES AND RELATED COMPOUNDS AS MODULATORS FOR SPLICING NUCLEIC ACIDS AND FOR THE T” (REMIX THERAPEUTICS INC., priority 2020, published 2024).

Where only a bound is given, the exact number is not on record here.

Holding throughout (format): cell-based
For assay [1], the system named is SMN2 CJ mRNA. Briefly: Gene panel canonical junction qPCR assay, SMN2. Conditions: Table 6, decrease in CJ mRNA, read-out: SMN2 IC50 (decrease in CJ mRNA levels). In outline:
(§1)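 A673 or K562 cells treated 24 h at 37° C with 11-point 3-fold dilutions, top 10 uM, DMSO ≤0.25%. CJ mRNA quantified by RT-qPCR with exon-junction-spanning probeset, ΔΔCt vs housekeeping gene (GAPDH, GUSB or PPIA) and DMSO control. IC50 from 4-parameter fit of percentage CJ decrease.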

Assay [2] deals with HTT CJ mRNA. As to the kind of experiment: Gene panel canonical junction qPCR assay, HTT. The settings on record: Table 6, decrease in CJ mRNA, read-out: HTT IC50 (decrease in CJ mRNA levels). In a few lines: as §1
Background: In qPCR the cycle at which signal appears reflects the starting amount.

The test system of assay [3] is Target C CJ mRNA. As to the kind of experiment: Gene panel canonical junction qPCR assay, Target C. Conditions: Table 6, decrease in CJ mRNA, read-out: Target C IC50 (decrease in CJ mRNA levels). In a few lines: as §1
The test system of assay [4] is HTT mRNA. Briefly: Splicing assay (RT-qPCR) monitoring HTT splice variants, canonical (CJ) and alternative (AJ) junction. Conditions: 50% response, A673 or K562 cell line, 24 hours; for IC50: decrease in CJ mRNA; for AC50: increase in AJ mRNA. In a few lines: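 A673 or K562 cells were treated 24 h with an 11-point 3-fold dilution series (top 10 uM, ≤0.25% DMSO) at 37 °C. HTT canonical- and alternative-junction mRNAs were quantified in lysates by one-step RT-qPCR. Values were normalized to PPIA (A673) or GAPDH/GUSB (K562).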

The term IC50 denotes the point on the concentration scale where inhibition reaches its midpoint. Usually AC50 stands for the midpoint of the concentration-response curve, whichever way the signal moves. A higher AC50 goes with activity only at high concentration. Regarding `CN1CCC(N(C)c2cc3sc(-c4cc(F)c5nn(C)cc5c4)nc3s2)CC1` [Compound 145, N-[2-(7-fluoro-2-methylindazol-5-yl)thieno[2,3-d][1,3]thiazol-5-yl]-N,1-dimethylpiperidin-4-amine], the IC50 in assay [1] is 100 to 1000 nM; in assay [2], greater than 10000 nM; in assay [3], greater than 10 µM; in assay [4], greater than 10000 nM. Also, the AC50 in assay [4] was greater than 10000 nM.

For `CC1CN(c2cc3sc(-c4cc(F)c5nn(C)cc5c4)nc3s2)CCN1C` (centres unmarked) [Compound 128, 5-[5-(3,4-dimethylpiperazin-1-yl)thieno[2,3-d][1,3]thiazol-2-yl]-7-fluoro-2-methylindazole], the IC50 in assay [1] is 100 to 1000 nM; in assay [2] it was 1000 to 10000 nM; in assay [3] it was 1 to 10 µM; in assay [4], 1000 to 10000 nM. Further, the half-maximal activity concentration (AC50) in assay [4] fell in the range of 1000 to 10000 nM.

In the case of `Cn1cc2cc(-c3cc4sc(C5CCNCC5)nc4s3)cc(F)c2n1` [Compound 124, 7-fluoro-2-methyl-5-[2-(piperidin-4-yl)thieno[2,3-d][1,3]thiazol-5-yl]indazole], the IC50 in assay [1] is less than 100 nM; in assay [2], 100 to 1000 nM; in assay [3], 0.1 to 1 µM; in assay [4], 100 to 1000 nM. The molecule also registered an AC50 in assay [4] of less than 100 nM.

`c1n[nH]cc1-n1cc2sc(C3CCNCC3)cc2n1` [Compound 176]: the IC50 in assay [1] was greater than 10000 nM; in assay [2], greater than 10000 nM; in assay [3], greater than 10 µM; in assay [4], greater than 10000 nM. For the same molecule, the half-maximal activity concentration (AC50) in assay [4] is greater than 10000 nM.

With `Cc1cn2nc(-n3cc4cc(C5CCNCC5)sc4n3)nc2c(C)n1` [Compound 163, 4-(2-{6,8-dimethyl-[1,2,4]triazolo [1,5-a]pyrazin-2-yl}thieno[2,3-c]pyrazol-5-yl)piperidine], the IC50 in assay [1] was 1000 to 10000 nM; in assay [2] it was 1000 to 10000 nM; in assay [3], 1 to 10 µM; in assay [4], 1000 to 10000 nM. The molecule also displayed an AC50 in assay [4] of 1000 to 10000 nM.

With `Cc1cn2nc(-c3nc4sc(C5CCNC5)cc4s3)cc(C)c2n1` (centres unmarked) [Compound 197, 3-(2-{2,8-dimethylimidazo[1,2-b]pyridazin-6-yl}thieno [2,3-d][1,3]thiazol-5-yl)pyrrolidine], the concentration for half-maximal inhibition (IC50) in assay [1] lay in the range of 100 to 1000 nM; in assay [2] it was 100 to 1000 nM; in assay [3], 1 to 10 µM; in assay [4], 100 to 1000 nM. Moreover, the AC50 in assay [4] was 100 to 1000 nM.

As to `Cn1cc2cc(-n3cc4sc(C5CCNCC5)cc4n3)c(O)cc2n1` [Compound 178], the IC50 in assay [1] is 1000 to 10000 nM; in assay [2] it was 1000 to 10000 nM; in assay [3] it was 1 to 10 µM; in assay [4], 1000 to 10000 nM. For the same molecule, the AC50 in assay [4] fell in the range of 1000 to 10000 nM.
